In ChEMBL document CHEMBL1148303, “Design and synthesis of alpha-aryloxy-alpha-methylhydrocinnamic acids: a novel class of dual peroxisome proliferator-activated receptor alpha/gamma agonists” (J Med Chem, 2004) one finds IC50 and EC50 data, which are given here for 14 molecules.

Experiment [1] addresses T1, Peroxisome proliferator-activated receptor delta (Homo sapiens, UniProt Q03181).
T1 sequence (Q03181 whole entry): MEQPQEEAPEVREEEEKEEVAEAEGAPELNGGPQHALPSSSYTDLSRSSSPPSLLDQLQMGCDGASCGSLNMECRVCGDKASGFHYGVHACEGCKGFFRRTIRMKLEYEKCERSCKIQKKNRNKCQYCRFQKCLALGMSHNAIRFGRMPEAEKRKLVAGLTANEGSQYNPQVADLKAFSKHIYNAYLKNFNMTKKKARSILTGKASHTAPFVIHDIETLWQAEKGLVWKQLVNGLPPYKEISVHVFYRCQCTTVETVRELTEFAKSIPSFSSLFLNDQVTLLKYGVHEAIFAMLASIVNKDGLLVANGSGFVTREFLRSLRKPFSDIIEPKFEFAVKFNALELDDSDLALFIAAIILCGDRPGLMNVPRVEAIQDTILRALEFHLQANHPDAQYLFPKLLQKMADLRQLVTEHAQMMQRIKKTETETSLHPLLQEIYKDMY

The target of experiment [2] is T1, Peroxisome proliferator-activated receptor delta. In kind it is cell-based. The following applies: cv-1.
The target in experiment [3] is T2, Peroxisome proliferator-activated receptor alpha (Homo sapiens, UniProt Q07869).
T2 sequence (Q07869 whole entry): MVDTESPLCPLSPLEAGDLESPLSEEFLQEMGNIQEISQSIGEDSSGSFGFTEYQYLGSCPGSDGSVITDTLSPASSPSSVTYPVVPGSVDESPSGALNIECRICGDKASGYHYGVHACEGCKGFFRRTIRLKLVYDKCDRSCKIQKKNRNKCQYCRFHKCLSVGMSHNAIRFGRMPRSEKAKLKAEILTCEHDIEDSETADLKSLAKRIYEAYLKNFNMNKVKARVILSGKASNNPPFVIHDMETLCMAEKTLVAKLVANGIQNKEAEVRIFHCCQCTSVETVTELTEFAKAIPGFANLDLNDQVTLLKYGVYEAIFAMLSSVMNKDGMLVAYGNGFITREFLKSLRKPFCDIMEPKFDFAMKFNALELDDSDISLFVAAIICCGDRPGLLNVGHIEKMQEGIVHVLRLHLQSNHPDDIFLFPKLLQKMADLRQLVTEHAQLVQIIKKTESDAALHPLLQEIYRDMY
In kind it is cell-based, CV-1.

The target of experiment [4] is T2, Peroxisome proliferator-activated receptor alpha. Type of experiment: functional.
For experiment [5], the target named is T1, Peroxisome proliferator-activated receptor delta. In kind it is functional.
For experiment [6] the target is unchanged. In kind it is cell-based, CV-1.
Experiment [7] has the same target. This is another data set of the same source.

The structures appear in SMILES notation.

As to `Cc1oc(-c2cccc(-c3ccccc3)c2)nc1CCOc1ccc(CC(C)(Oc2ccccc2)C(=O)O)cc1` (stereo not given), the IC50 entry is “Not Active” in experiment [1] and 0.167 µM in experiment [4]. Further, the EC50 entry in experiment [2] is “Not Active”; in experiment [3], 0.007 µM.
Turning to `Cc1oc(C2CCCCC2)nc1CCOc1ccc(C[C@](C)(Oc2ccccc2)C(=O)O)cc1`, in experiment [5], the IC50 is 9.69 µM. In addition, in experiment [6] (cv-1), the EC50 entry is recorded as “Not Active”.
As to `Cc1oc(C2CCCCC2)nc1CCOc1ccc(CC(C)(Oc2ccccc2)C(=O)O)cc1` (stereo not given), the IC50 result in experiment [7] is “Not Active”. In experiment [2], the EC50 result is “Not Active”.
In the case of `Cc1oc(-c2ccccc2)nc1CCOc1ccc(C[C@](C)(Oc2ccccc2)C(=O)O)cc1`, the IC50 in experiment [5] is 5.52 µM. Further, the EC50 result in experiment [6] (cv-1) is recorded as “Not Active”.
With `CCC(Cc1ccc(OCCc2nc(-c3ccccc3)oc2C)cc1)(Oc1ccccc1)C(=O)O` (stereo not given), the figures for the IC50 in experiment [5] and in experiment [4] were 5.07 µM and 0.473 µM, respectively. For the same molecule, the EC50 result in experiment [6] (cv-1) was “Not Active”; in experiment [3], 0.075 µM.
In the case of `Cc1oc(-c2ccccc2)nc1CCOc1ccc(OC(C)(Cc2ccccc2)C(=O)O)cc1` (stereo not given), half-maximal inhibition in experiment [5] (IC50) was put at 4.45 µM. Moreover, in experiment [2], the EC50 entry is listed as “Not Active”.
`Cc1oc(-c2ccccc2)nc1CCOc1ccc(C[C@@](C)(Oc2ccccc2)C(=O)O)cc1` came in with an IC50 in experiment [5] of 2.68 µM. In addition, the EC50 in experiment [6] (read-out: EC50) was determined as 3.01 µM.
In the case of `Cc1oc(-c2ccccc2)nc1CCOc1ccc(CC(Oc2ccccc2)C(=O)O)cc1` (stereo not given), the figures for the IC50 in experiment [5] and in experiment [4] were 7.04 µM and 1.11 µM, respectively. The EC50 entry in experiment [6] (cv-1) is “Not Active”; in experiment [3], 0.833 µM.
Take `Cc1oc(-c2cccs2)nc1CCOc1ccc(C[C@@](C)(Oc2ccccc2)C(=O)O)cc1`: the EC50 entry in experiment [6] (cv-1) was “Not Active”.
In the case of `Cc1oc(-c2cccs2)nc1CCOc1ccc(C[C@](C)(Oc2ccccc2)C(=O)O)cc1` [LY-510929], the concentration for a half-maximal effect (EC50) result in experiment [2] was “Not Active”.
Consider `Cc1oc(-c2ccccc2)nc1CCOc1ccc(CC(C)(Oc2ccccc2)C(=O)O)cc1` (stereo not given), for which the midpoint of inhibition in experiment [5], the IC50, lay at 7.11 µM. Also, the EC50 entry in experiment [2] is given as “Not Active”.
Turning to `Cc1oc(-c2ccc(-c3ccccc3)cc2)nc1CCOc1ccc(CC(C)(Oc2ccccc2)C(=O)O)cc1` (stereo not given), the IC50 entry was “Not Active” in experiment [7] and 0.503 µM in experiment [4]. Further, the EC50 result was “Not Active” in experiment [2] and 0.069 µM in experiment [3].
As to `CCCCC(Cc1ccc(OCCc2nc(-c3ccccc3)oc2C)cc1)(Oc1ccccc1)C(=O)O` (stereo not given), the results for the IC50 in experiment [5] and in experiment [4] were 7.23 µM and 1.85 µM, respectively. Besides, the EC50 entry was “Not Active” in experiment [6] (cv-1) and 2.56 µM in experiment [3].
Turning to `Cc1oc(-c2cccs2)nc1CCOc1ccc(CC(C)(Oc2ccccc2)C(=O)O)cc1` (stereo not given), the EC50 result in experiment [2] was “Not Active”.

By IC50 is commonly meant the concentration needed to halve the response being measured. Low values mean higher potency, high ones lower potency. Broadly, the EC50 is the midpoint of the concentration-response curve.
